Source: US20150209379A1, “TREATMENT OF PROSTATE CANCER AND HEMATOLOGIC NEOPLASMS” (THOMAS JEFFERSON UNIVERSITY, priority 2012, published 2015)

How the values were obtained:
Stat5a = target: T1, Stat5a (Homo sapiens, UniProt P42229); assay: Stat5a dimerization (FLAG-/MYC-tagged Stat5a co-immunoprecipitation) in PC-3 cells; assay type: cell-based; design: expressed in transfected cells; host or cells: PC-3 human prostate cancer cells; conditions: 2 hours pretreatment, then hPrl 10 nM 30 minutes
T1 sequence (P42229 1-794): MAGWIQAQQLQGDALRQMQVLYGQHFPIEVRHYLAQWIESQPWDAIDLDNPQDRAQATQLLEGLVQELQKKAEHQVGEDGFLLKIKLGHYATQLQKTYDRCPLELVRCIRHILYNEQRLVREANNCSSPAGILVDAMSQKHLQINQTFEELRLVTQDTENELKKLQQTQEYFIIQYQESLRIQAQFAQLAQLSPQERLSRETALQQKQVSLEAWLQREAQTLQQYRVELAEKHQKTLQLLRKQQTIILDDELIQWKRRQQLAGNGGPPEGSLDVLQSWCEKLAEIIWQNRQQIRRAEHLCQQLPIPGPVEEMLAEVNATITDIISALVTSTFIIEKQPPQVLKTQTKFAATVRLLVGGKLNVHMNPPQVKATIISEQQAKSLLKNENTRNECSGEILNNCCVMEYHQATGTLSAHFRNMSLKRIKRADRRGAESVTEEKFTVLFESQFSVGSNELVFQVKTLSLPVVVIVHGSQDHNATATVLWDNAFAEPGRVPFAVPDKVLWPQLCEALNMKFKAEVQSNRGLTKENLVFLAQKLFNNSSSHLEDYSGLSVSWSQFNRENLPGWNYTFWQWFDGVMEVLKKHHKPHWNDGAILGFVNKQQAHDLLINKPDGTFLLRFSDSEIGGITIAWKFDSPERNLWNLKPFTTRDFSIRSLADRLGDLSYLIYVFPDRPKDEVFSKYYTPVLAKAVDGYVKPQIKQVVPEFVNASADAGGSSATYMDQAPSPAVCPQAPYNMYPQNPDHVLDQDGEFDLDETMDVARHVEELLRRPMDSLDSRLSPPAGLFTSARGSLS
Procedure: (§1) FLAG-tagged Stat5a and MYC-tagged Stat5a were generated by standard molecular biology cloning techniques. Plasmid pCMV3-FLAG-Stat5a, pCMV3-MYC-Stat5a and pPr1R were co-transfected using FuGENE6 (Roche) into PC-3 cells (2 μg of each plasmid per 1×10^7 cells). The cells were starved for 20 hours, pretreated with test compound for 2 hours, then stimulated with hPrl (10 nM) in RPMI 1640 without serum for 30 minutes. The cell lysates were immunoprecipitated with 25 μl anti-FLAG M2 […] affinity gel (2 μg/ml, Sigma), anti-MYC pAb (1 μg/ml, Upstate) or normal rabbit serum (NRS). The primary antibodies were used in the immunoblottings at the following concentrations: anti-FLAG pAb (1:1000; Stratagene), anti-MYC mAb (1:1000; Sigma), anti-Stat5a/b mAb (1:250) (Transduction Laboratories) detected by horseradish peroxidase-conjugated secondary antibodies. The results are shown in FIG. 3A for Compound 1 and FIG. 3B for Compound 2.
Lanes 1, 2, 4, 6 and 8 represent cells stimulated with human prolactin (Prl) for 30 minutes which induces dimerization of Stat5. Two hours prior to Prl-stimulation, the cells had been treated with DMSO (lanes 1-4), the control compound C5 (lanes 7 and 8) and either Compound 1 (lanes 5 and 6 in FIG. 3A) or Compound 2 (lanes 5 and 6 in FIG. 3B). […] It should be noted the drug effect in this study was not due to cell apoptosis induction, as the treatment time was only 2 hours. Treatment of at least 48 hours is required for the compound to induce prostate cancer cell apoptosis.
as §1, with “and pPrlR” for “and pPr1R”, “hours, pre-treated” for “hours, pretreated”, “with NBPP” for “with test compound”, “2 h,” for “2 hours,”, “antibodies.” for “antibodies. The results are shown in FIG. 3A for Compound 1 and FIG. 3B for Compound 2.”
Lanes 1, 2, 4, 6 and 8 represent cells stimulated with human prolactin (Prl) for 30 minutes which induces dimerization of Stat5. Two hours prior to Prl-stimulation, the cells had been treated with DMSO (lanes 1-4), the control compound C5 (lanes 5 and 6) or NBPP (lanes 7 and 8) to test whether the Stat5a/b-inhibitor compound, NBPP, would be able to inhibit dimerization of StatS. […] It should be noted the drug effect in this study was not due to cell apoptosis induction, as the treatment time was only 2 hours. Treatment of at least 48 hours is required for the compound to induce prostate cancer cell apoptosis.
FLAG-tagged Stat5a and MYC-tagged Stat5a were generated by standard molecular biology cloning techniques.as follows. […] The primary antibodies were used in the immunoblottings at the following concentrations: anti-FLAG pAb (1:1000; Stratagene), anti-MYC mAb (1:1000; Sigma), anti-Stat5a/b mAb (1:250) (Transduction Laboratories) detected by horseradish peroxidase-conjugated secondary antibodies. […]

[1] = system: K562 human chronic myeloid leukemia cells; assay: Cell viability, MTS assay, K562 chronic myeloid leukemia cells; assay type: cell-based; conditions: K562, 72 h, 3.1, 6.3, 12.5, 25 and 50 μM, vs control compound C5
Procedure: (§2) Exponentially growing K562 human chronic myeloid leukemia cells were treated with Compound 1, Compound 2 or the control compound C5 for 72 h at 3.1, 6.3. 12.5, 25 and 50 μM concentrations. The cell viability was assessed by MTS (3-(4,5-dimethylthiazolyl-2)-2,5-diphenyl-tetrazolium bromide) metabolic activity assay (CellTiter 96® AQueous Assay kit).
as §2, with “growing CWR22Rv1 prostate cancer cells,” for “growing”, “leukemia cells and imatinib-sensitive KCL22S and imatinib-resistant KCL22R” for “human”, “NBPP” for “Compound 1, Compound 2”

Structure (SMILES) | effect on Stat5a dimerization (Stat5a) | number of viable cells [1]
OC[C@H]1O[C@@H](n2cnc3c(NCc4ccccc4)ncnc32)[C@H](O)[C@@H]1O [Compound N6BA, N^6-benzyladenosine] | effectively inhibited Stat5a dimerization | –
OC[C@H]1O[C@@H](n2cnc3c(N4CCc5ccccc5C4)ncnc32)[C@H](O)[C@@H]1O [Compound 1, (2R,3R,4S,5R)-2-(6-(3,4-Dihydroisoquinolin-2(1H)-yl)-9H-purin-9-yl)-5-(hydroxymethyl)tetrahydrofuran-3,4-diol] | effectively inhibited Stat5a dimerization | decreased the number of viable leukemic cells compared to the control compound
OC[C@H]1O[C@@H](n2ccc3c(NCc4ccccc4)ncnc32)[C@H](O)[C@@H]1O [NBPP, N-(phenylmethyl)-7-β-D-ribofuranosyl-7H-pyrrolo[2,3-d]pyrimidin-4-amine] | effectively inhibited Stat5a dimerization | decreased the number of viable K562 cells
OC[C@H]1O[C@@H](n2cnc3c(NNc4ccccc4)ncnc32)[C@H](O)[C@@H]1O [Compound 2, (2R,3S,4R,5R)-2-(hydroxymethyl)-5-(6-(2-phenylhydrazinyl)-9H-purin-9-yl)tetrahydrofuran-3,4-diol] | effectively inhibited Stat5a dimerization | decreased the number of viable leukemic cells compared to the control compound
